In article PMC4222603, “Dual inhibition of HIV-1 replication by integrase-LEDGF allosteric inhibitors is predominant at the post-integration stage” (Retrovirology, 2013):
Where two headings read alike, the source gives them in different places.

How the values were obtained:
[1] = molecular target: T1, IN-CCD/LEDGF-IBD interaction (Human immunodeficiency virus type 1 group M subtype B, UniProt P12497, F1332K); test: HTRF-based CCD-IBD interaction assay; format: binding, HIV-1; details: Table 1
T1 construct: cloning the integrase region (residues 50 to 202, encoding the catalytic core domain); made in house
Text: All HTRF® conjugated monoclonal antibodies were purchased from Cisbio Bioassays.

[2] = molecular target: IN-LEDGF/p75 interaction (Human immunodeficiency virus type 1 group M subtype B, UniProt P12497); test: biochemical
Protocol: IN-LEDGF HTRF® assay was performed in 384-well low volume black polystyrene plates (Corning) using IN-LEDGF assay buffer (25 mM Tris–HCl pH 7.4, 150 mM NaCl, 2 mM MgCl2, 0.4 M KF, 0.1% Igepal CA-630, 0.1% bovine serum albumin, 1 mM DTT). […] The HTRF ratio was converted to % inhibition and analyzed by fitting a sigmoidal dose–response equation with Hill slope to determine the IC50 of the compound.

[3] = molecular target: T2, IN strand transfer activity (Human immunodeficiency virus type 1 group M subtype B, UniProt P12497); test: IN strand transfer ELISA assay; format: biochemical, HIV-1
T2 construct: loaded on a Superdex 200 16/600 PG column (for full length IN); made in house
Protocol: IN strand transfer ELISA assay has been adapted from. […] 16 μL of IN mixture (20 mM HEPES pH 7.5, 10 mM MgCl2, 1 mM DTT, 0.50 μM His6-IN) was added. […] The reaction was stopped by addition of 60 μL stop mixture (20 mM Tris–HCl pH 7.6, 0.4 M NaCl, 10 mM Na2EDTA, 0.1 mg/mL salmon sperm DNA) and the volume transferred to Reacti-Bind high-binding capacity streptavidin-coated white plates (Thermo Scientific Pierce). After 1 h incubation at room temperature under gentle shaking, integrase and unjoined DNA were removed by three washes with 200 μL wash solution 1 (30 mM NaOH, 0.2 M NaCl, 1 mM Na2EDTA). 100 μL of 2000-fold diluted HRP-conjugated anti-DIG Fab (Roche Applied Science) was added and the plate was incubated for 1 h at 37°C. Unbound antibody was removed with wash solution 2 (PBS pH 7.4, 0.05% Tween-20, 0.1% bovine serum albumin), 100 μL of SuperSignal Femto ELISA substrate (Thermo Scientific Pierce) was added and chemiluminescence was immediately read in a PHERAstar Plus with LUM-plus module. The signal, converted to % inhibition, was analyzed by fitting a sigmoidal dose–response curve to determine IC50 and the inhibition plateau.

[4] = tested on: HIV-1 NL4-3; test: Antiviral assay in MT-4 cells, multiple-round infection, CellTiter-Glo; format: cell-based
Protocol: MT-4 cells growing exponentially at the density of 10^6/mL were infected with HIV-1 strain NL4-3 at a MOI (multiplicity of infection) of 0.001 for 2 h. The cells were washed with PBS and aliquoted, using 100 μL fresh complete RPMI, into 96-well white plates (Corning) in the presence of different concentrations of compounds.

[5] = tested on: HxB2 HIV-1; test: Antiviral assay in MT4 cells infected with HxB2; format: cell-based; details: Human immunodeficiency virus 1, HXB2, MT4; Table 1; read-out: HxB2 EC50 (MT4 assays)
[6] = in vitro; format: cell-based; details: human
Protocol: Growth inhibition was monitored in a proliferating human T-cell line (MT-4) with different concentrations of compounds. ATP levels were quantified using the CellTiter-Glo® luminescent reagent (Promega) to measure the ability of a compound to inhibit cell growth, an indication of the compound’s cytotoxicity. Cytotoxicity was evaluated at either day 2 or day 5.

[7] = tested on: VSV-G-pseudotyped NL4-3Δenv-luc; test: microbe, parasite or virus in culture; format: cell-based, HIV-1
[8] = tested on: NL4-3 RT M41L, D67N, T69N, K70R, T215F, K219E; test: Antiviral assay on NRTI-resistant virus; format: cell-based, HIV-1; details: ratio EC50 resistant virus / wt virus
[9] = tested on: NL4-3 RT K103N, Y181C; test: Antiviral assay on NNRTI-resistant virus; format: cell-based, HIV-1; details: ratio EC50 resistant virus / wt virus
[10] = tested on: NL4-3 Integrase G140S, Q148H; test: Antiviral assay on INSTI-resistant virus; format: cell-based, HIV-1; details: ratio EC50 resistant virus / wt virus
[11] = tested on: NL4-3 HIV-1 virus bearing the T174I mutation in IN; test: microbe, parasite or virus in culture; format: cell-based; details: Human immunodeficiency virus 1, NL43, read-out: EC50 on NL4-3 IN T174I mutant
[12] = molecular target: T3, IN NL4-3 wt (Human immunodeficiency virus type 1 group M subtype B, UniProt P12497); parameters: species or system HIV-1; details: pre-incubation with 100 μM compound
T3 construct: loaded on a Superdex 200 16/600 PG column (for full length IN); made in house
Protocol: SEC was performed with a Superdex 200 10/300 GL column (GE Healthcare) using a flow-rate of 0.4 mL/min in buffer containing 50 mM HEPES, pH 7.5, 1 M NaCl, 7 mM CHAPS, 5 mM MgCl2, 10 mM DTT, 10% glycerol at room temperature. […] Protein elution was monitored at 280 nm.

[13] = tested on: HIV-1 LAV virions produced by HeLa-LAV cells; test: Virions produced by compound-treated HeLa-LAV cells: p24 and infectivity; format: cell-based
[14] = tested on: HIV-1 NL4-3 wt; format: cell-based
[15] = tested on: NL4-3 IN T174I mutant virus; format: cell-based, HIV-1
[16] = molecular target: viral protease (Human immunodeficiency virus type 1 group M subtype B, UniProt P12497); test: Viral protease inhibition (unpublished data); format: biochemical, HIV-1
[17] = tested on: panel of virus mutants in an NL4-3 background resistant to INSTIs and other classes of ARV drugs; details: EC50 on resistant virus / EC50 on wt
[18] = molecular target: IN-CCD wt (Human immunodeficiency virus type 1 group M subtype B, UniProt P12497, F1332K)

Cc1nc2c(c(-c3ccc4c(c3)CCCO4)c1C(OC(C)(C)C)C(=O)O)CCCC2 (centres unmarked) [Mut101, 2-(tert-butoxy)-2-[4-(3,4-dihydro-2H-1-benzopyran-6-yl)-2-methyl-5,6,7,8-tetrahydroquinolin-3-yl]acetic acid]
IC50 [1]: 230 nM
IC50 ([2]; IC50 on IN-LEDGF interaction inhibition, LEDGF competition, increased value, highest LEDGF/p75 competing concentration (range 7.5 nM to 480 nM)): 680 nM
IC50 ([2]; IC50 on IN-LEDGF interaction inhibition, LEDGF competition, starting value, lowest LEDGF/p75 competing concentration (range 7.5 nM to 480 nM)): 97 nM
IC50 ([2]; IN-LEDGF IC50, Table 1, HTRF, full length proteins): 200 nM
IC50 ([3]; Table 1, ELISA, read-out: IN ST IC50): 170 nM
IN ST plateau (%) ([3]; inhibition plateau, concentrations up to 100 μM): 66%
EC50 ([4]; Human immunodeficiency virus 1, NL43, MT4, Table 1, read-out: NL4-3 EC50 (MT4 assays)): 540 nM
EC50 ([4]; Human immunodeficiency virus 1, NL43, MT4, Table 3, mean of two independent experiments, read-out: EC50 NL4-3 WT): 470 nM
EC50 ([4]; Human immunodeficiency virus 1, NL43, MT4 cells, mean of six independent experiments, read-out: NL4-3 EC50 Multiple-round): 490 ± 40 nM
EC50 [5]: 92 nM
CC50 [6]: > 50000 nM
SR/MR ratio [7]: 18
EC50 ([7]; Human immunodeficiency virus 1, NL43, MT4, read-out: NL4-3 EC50 Single-round): 9000 ± 1500 nM
EC50 fold change NRTIs [8]: 1
EC50 fold change NNRTIs [9]: 1
EC50 fold change INSTIs [10]: 1
EC50 [11]: > 50000 nM
Effect on IN wt oligomerization state (SEC) [12]: higher IN oligomerization state
Virucidal effect on free virus released in supernatant [13]: unable to inactivate free virus
Amount of p24 produced by treated HeLa-LAV cells ([13]; compared with Raltegravir, DMSO or Mut063 treatment): comparable
Infectivity of virions from treated HeLa-LAV cells ([13]; luciferase assay in TZM cells): strong virus infectivity defects
Infectivity of NL4-3 wt virus produced in presence of compound [14]: inactivated
Infectivity of NL4-3 IN T174I virus produced in presence of compound [15]: insensitive
Inhibition of viral protease [16]: does not inhibit viral protease
EC50 fold change (FC) ratio against all resistant viruses [17]: ≤ 1
Kd [18]: 120 nM
